Test results taken from US9580713B2 (priority 2011, dated 2017).
pKd: −log10 of the molar value. Several values for one entry are separate records, joined by “and”; a condition that tells them apart may be missing. Identical values can stand only once. Entries after “also recorded” stand apart in the source; their conditions may differ. Like-named read-outs stand apart in the source and are kept apart here.

Key:
[1] = tested on: 78 Psy crcB motif RNA (fluoride riboswitch aptamer); format: binding, Pseudomonas syringae
[2] = tested on: E. coli cells lacking the gene to express the fluoride transporter protein CrcB; test: Fluoride riboswitch beta-galactosidase reporter (4-MUG) in E. coli lacking CrcB with imipramine; format: cell-based; conditions: same construct in cells lacking CrcB, compared with cells having CrcB
Description: (§1) A fluoride riboswitch fused to a beta-galactosidase reporter gene is present in E. coli cells and cells are exposed to concentrations of sodium fluoride and imipramine (x-axis) as noted. The structure of imipramine is shown below.

[3] = biological target: T1, fluoride transporter protein CrcB (Escherichia coli, UniProt P37002); test: Fluoride riboswitch beta-galactosidase reporter (4-MUG) in E. coli with imipramine; format: cell-based
T1 construct: this bacterial species does code for a CrcB protein; endogenous in cells; host or cells: E. coli
Description: as §1

[4] = tested on: WT E. coli cells
Procedure: For each bacterial strain, an overnight culture was set up of the desired bacteria the previous day. The majority of the growth curves were conducted in 350 μL LB medium that initially was not supplemented with salt. […] The desired concentration of NaF or NaCl was subsequently added as designated for each culture after a 1:100 dilution of an overnight culture. Wells with NaF concentrations below 1 mM were supplemented with 1 mM NaCl. Each condition was set up in duplicate or triplicate. Every fifteen minutes the 100-well plate was shaken at medium intensity for 10 seconds and the OD600 was automatically measured for a period of 16 hours. The data was analyzed using Microsoft Excel.

[5] = biological target: crcB motif RNA; conditions: read-out: KD for fluoride binding; in-line probing
Procedure: (§2) Briefly, in vitro transcribed RNA were 5′ ^32P-radiolabeled and trace amounts (˜1 nM) were incubated at room temperature for 48 hours (unless otherwise indicated) in the presence of 100 mM KCl, 50 mM Tris-HCl (pH 8.3 at 23° C.), and 20 mM MgCl2. Cleavage products were separated by using denaturing 10% PAGE and imaged with a PhosphorImager (Molecular Dynamics). ImageQuant 5.1 was used to establish band intensities. Exceptions to the typical in-line probing methods are detailed in the following sections.

[6] = tested on: riboswitch associated with B. cereus crcB fused to lacZ; conditions: increasing amounts of fluoride, X-gal and Miller assays with ONPG
Procedure: (§3) Cell growth of WT and crcB KO E. coli strains were measured overnight using a Bioscreen C instrument (Oy Growth Curves Ab Ltd, Finland). The amount of fluoride added to the media was varied to measure the effect on growth at several pH values. Reporter constructs with B. cereus or P. syringae riboswitch sequences fused to the lacZ gene were cloned into the vectors pDG1661 or pRS414, respectively. The two vectors were transformed into B. subtilis or E. coli, and gene expression was examined by addition of X-gal into grown cultures or quantified with Miller assays.

[7] = tested on: crcB KO strain of E. coli; test: microbe, parasite or virus in culture
Procedure: as §3
(§4) Growth curves to compare pH conditions used 350 μL of LB (neutral pH) or LBK medium (pH 5.5), 3.5 μL of an overnight culture, and 3.5 μL, of a 10× sodium fluoride or sodium chloride solution. Growth curves with empty or eriC^F-containing plasmid included 100 μg mL^−1 carbenicillin added to the growth medium (2XLB), which was subsequently diluted two-fold to a final concentration of 50 μg mL^−1.
(§5) E. coli strains BW25113 and its crcB KO derivative strain harboring the eriC^F riboswitch reporter construct were streaked on modified LB plates with carbenicillin (100 μg mL^−1) and X-gal (800 μg ml^−1). Plates included 0, 0.2 or 50 mM NaF.

[8] = biological target: crcB motif RNA; conditions: read-out: KD for fluoride binding; in-line probing; remark: listed apart in the source
Procedure: as §2

[9] = tested on: fluoride riboswitch from the P. syringae eriC gene fused to lacZ
Procedure: as §3
The 5′ UTR of COG0038 (eriC^F homolog) was amplified from P. syringae DC3000 genomic DNA as an EcoRI-BamHI fragment and cloned into the translational reporter vector pRS414. […] Specifically, the region encompassing nucleotides −248 to +24 with respect to the beginning of the eriC^F ORF was cloned as a translational fusion in pRS414, wherein the 8th codon of the ORF was fused in frame to the 9th codon of lacZ reporter gene. Mutations in the regulatory region were generated by a three-step PCR approach using methods described previously (A. Nahvi, et al., Chem. Biol. 9, 1043 (2002)).
as §5

[10] = tested on: eriC^F-rescued E. coli crcB KO cells
Procedure: The eriC^F gene from P. syringae DC3000 was amplified from genomic DNA by PCR and cloned into the pCR2.1 TA vector (Invitrogen). The cloned fragment contained the full length eriC^F ORF, the 5′ UTR features described above, and the native promoter to drive expression.
as §4

[11] = ligands at 10 mM or as in footnotes of Tables 1 and 2 (CO ~0.9 mM, NO 1 mM)

T1 sequence (P37002 whole entry): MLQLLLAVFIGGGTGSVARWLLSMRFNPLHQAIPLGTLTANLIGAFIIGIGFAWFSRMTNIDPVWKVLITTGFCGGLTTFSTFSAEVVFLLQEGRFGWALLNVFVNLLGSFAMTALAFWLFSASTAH

## F.[F-].[K+] [potassium bifluoride]
[1]
  conformational changes of 78 Psy crcB motif RNA: trigger identical conformational changes

## Br [bromide]
[1]
  binding / structure modulation by other ligands: rejects

## CN(C)CCCN1c2ccccc2CCc2ccccc21 [imipramine, 3-(10,11-dihydro-5H-dibenzo[b,f]azepin-5-yl)-N,N-dimethylpropan-1-amine]
[2]
  level of reporter gene expression with imipramine: substantially reduced
[3]; 330 μM imipramine, with sodium fluoride
  reporter gene expression (fluorescence, 4-MUG): increased expression of the reporter gene
[3]; concluded from reporter results with and without CrcB
  action on fluoride transporter CrcB: blocks this fluoride transporter

## Cl [chloride]
[1]
  78 Psy aptamer structure on exposure to chloride: remains unchanged
  binding / structure modulation by other ligands: rejects

## [F-].[Na+] [NaF, sodium fluoride]
[4]; liquid media
  concentration at which growth becomes noticeably reduced: 30 mM
[4]; liquid media, 16 hr growth curves
  minimum inhibitory concentration (MIC): ~200 mM
[1]
  conformational changes of 78 Psy crcB motif RNA: trigger identical conformational changes

## CCCC[N+](CCCC)(CCCC)CCCC.[F-] [TBAF, Tetra-n-butylammonium fluoride]
[1]
  conformational changes of 78 Psy crcB motif RNA: trigger identical conformational changes

## O [hydroxide ions, hydroxide]
[1]; pH 9.7
  RNA conformational changes with hydroxide: do not trigger RNA conformational changes

## I [iodide]
[1]; [11]
  binding / structure modulation by other ligands: rejects

## [C-]#[O+] [carbon monoxide]
[1]; [11]
  binding / structure modulation by other ligands: rejected

## F [fluoride]
[5]
  pKd: ~4.30
[6]
  β-galactosidase reporter activity: induced high levels of expression
[7]; 50 mM fluoride
  growth: fails to grow
[7]; Escherichia coli, 16 h, read-out: minimum inhibitory concentration (MIC)
  MIC: > 1 mM
[4]; 50 mM fluoride
  growth: robust growth
[8]
  pKd: ~4.30
[1]
  selectivity of aptamer binding, fluoride versus chloride: at least 40,000 fold
[1]; read-out: apparent dissociation constant (KD)
  pKd: ~4.22 and 4.22
[9]; crcB K.O. strain
  fluoride concentration in growth medium yielding maximal reporter gene signal: 1 mM
[9]; solid medium supplemented with 50 mM fluoride
  β-galactosidase expression: readily apparent
[10]; 1 mM fluoride
  growth inhibition: almost no growth inhibition
[10]; eriC^F-rescued cells
  fluoride concentration in culture medium required to cause growth inhibition and reporter expression: ~10 mM

## [N]=O [nitric oxide]
[1]; [11]
  binding / structure modulation by other ligands: rejected

## [Ca+2].[Cl-].[Cl-] [Ca^2+, calcium chloride]
[1]
  effect on fluoride-dependent RNA structural modulation: diminishes RNA structural modulation; also recorded: complete loss of modulation
